In patent US20240173317A1, “METHODS FOR TREATING PROGRESSIVE FAMILIAL INTRAHEPATIC CHOLESTASIS” (MIRUM PHARMACEUTICALS, INC., priority 2022, published 2024):

Assays:
subjects with PFIC [1] = experiment: ItchRO(Obs) pruritus severity, MARCH-PFIC Phase 3 study; type: in vivo, human; details: for percentage of pruritus response (ItchRO(Obs) responders): Week 15 to Week 26
Protocol: The primary analysis was conducted in the intent-to-treat (ITT) population of subjects with documented biallelic mutations in ABCB11 (PFIC 2), based on standard-of-care genotyping (primary cohort criteria). Subjects with a predicted complete absence of bile salt excretion pump (BSEP) function based on the type of ABCB11 mutation (PFIC 2), as determined by a standard-of-care genotype, were excluded from the primary cohort and could enroll only in the supplemental cohort. Subjects with other PFIC subtypes (e.g., PFIC 1/3/4/5/6, or new PFIC mutation variants) or postsurgical subjects (e.g., after internal or external biliary diversion surgery or subjects with reversal of biliary diversion surgery) were enrolled in a separate supplemental cohort and evaluated as part of secondary and exploratory analyses.
Subjects in the primary cohort were randomized in a 1:1 ratio to receive maralixibat or placebo. Subjects in the supplemental cohort were randomized in a 1:1 ratio to receive maralixibat or placebo within the following subcohorts: a) PFIC 1; b) PFIC 3; c) all other supplemental cohort subjects. All subjects received study treatment in addition to standard-of-care therapy, including antipruritic concomitant treatment.
For subjects assigned to maralixibat, the Dose Escalation period consisted of the following weekly steps: Dose level 1, 150 μg/kg maralixibat BID for 1 week; Dose level 2, 300 μg/kg maralixibat BID for 1 week; Dose level 3, 450 μg/kg maralixibat BID for 1 week; Dose level 4, 600 μg/kg maralixibat BID for the remaining duration of the study.
Efficacy. Severity of pruritus was assessed using the Itch caregiver/patient reported outcome measure (ItchRO™) administered as a twice daily electronic diary. Caregivers for all subjects completed the Observer instrument: ItchRO(Obs). The ItchRO(Obs) was completed by the same caregiver for consistency, whenever possible. Only subjects ≥9 years of age at screening completed the patient instrument: ItchRO(Pt). […] Pruritus was assessed and recorded twice daily, via ItchRO, beginning with the day after the screening visit and every day throughout the duration of the study. The severity of pruritus was measured by the completion of the first question in the ItchRO(Obs) (how severe were your child's itch-related symptoms) or ItchRO(Pt) (how itchy did you feel). The frequency of pruritus was measured by completion of the third question in the ItchRO(Obs) (how much of the time was your child rubbing or scratching) or ItchRO(Pt) (how much of last night/today did feeling itchy make you rub or scratch). Caregivers and subjects rated the severity and frequency of pruritus using 5 choices to describe their itching condition. ItchRO(Pt) and ItchRO(Obs) have been previously described in Kamath, et al., “Development of a Novel Tool to Assess the Impact of Itching in Pediatric Cholestasis,” Patient, 11:69-82 (2018), which is hereby incorporated by reference in its entirety for all purposes.
For this study, the primary estimand is the improvement in pruritus measured as change from baseline in the average morning ItchRO(Obs) severity score in the maralixibat treatment group relative to the placebo group. The primary analysis on the primary efficacy endpoint was conducted in 1) participants with PFIC 2 who fulfill criteria for the primary cohort in the ITT population (non-truncated primary “B SEP cohort” or “Primary cohort” with N=31), 2) all PFIC participants (excluding the participants with prior history of surgery, heterozygous participants and unknown types, “All PFIC cohort” or “PFIC cohort” with N=64), and 3) all study participants cohort, including the participants with prior history of surgery, heterozygous participants and unknown types. A restricted maximum likelihood (REML)-based mixed-effects model for repeated measures […] was used as the primary analysis method. […]

subjects with PFIC [2] = experiment: Treatment-emergent adverse events (TEAEs), MARCH-PFIC Phase 3 study; type: in vivo
Description: A TEAE can therefore be any unfavorable and unintended sign (including an abnormal laboratory finding), symptom, or disease temporally associated with the use of a medicinal (investigational) product, whether or not related to the medicinal (investigational) product (ICH Guidance E2A 1995). All TEAEs are collected from the time the informed consent is signed until the defined follow-up period. This includes events occurring during the screening phase of the study, regardless of whether or not study medication is administered.
A serious adverse event (SAE) is any untoward medical occurrence (whether considered to be related to study medication or not) that at any dose: 1) Results in death; 2) Is life-threatening; 3) Requires inpatient hospitalization or prolongation of existing hospitalization; 4) Results in persistent or significant disability/incapacity; or 5) Is an important medical event.
All SAEs (regardless of relationship to study) are collected from the time the subject signs the informed consent until the defined follow-up period and must be reported within 24 hours of the first awareness of the event.

[3] = All PFIC cohort, Weeks 15-26, FIG. 6B
[4] = BSEP deficiency cohort, FIG. 7A
[5] = BSEP deficiency cohort, FIG. 7B
[6] = BSEP deficiency cohort, FIG. 17A
[7] = BSEP deficiency cohort, Weeks 15-26, FIG. 6A
[8] = MARCH, all PFIC cohorts, Maralixibat (n = 47)
[9] = MARCH, all PFIC cohorts, Maralixibat (n = 47), listed as Maralixibat
[10] = among the 8 participants receiving MRX who had transaminase elevations

CCCCC1(CCCC)CS(=O)(=O)c2ccc(N(C)C)cc2[C@@H](c2ccc(OCc3ccc(C[N+]45CCN(CC4)CC5)cc3)cc2)[C@H]1O [maralixibat, 1-(4-((4-((4R,5R)-3,3-dibutyl-7-(dimethylamino)-4-hydroxy-1,1-dioxido-2,3,4,5-tetrahydrobenzo[b]thiepin-5-yl)phenoxy)methyl)benzyl)-1,4-diazabicyclo[2.2.2]octan-1-ium]
difference from the placebo group, evening ItchRO[Obs] score (subjects with PFIC [1]; All PFIC cohort, FIG. 8A): 1.157 point | reduction from baseline in pruritus evening ItchRO[Obs] score (subjects with PFIC [1]; All PFIC cohort, FIG. 8A): 1.8 points | difference from the placebo group, maximum daily ItchRO[Obs] score (subjects with PFIC [1]; All PFIC cohort, FIG. 8B): 1.198 point | reduction from baseline in maximum pruritus daily ItchRO[Obs] score (subjects with PFIC [1]; All PFIC cohort, FIG. 8B): 1.9 points | percentage of pruritus response (ItchRO(Obs) responders) (subjects with PFIC [1]; All PFIC cohort, FIG. 14A): 63.6% | difference from the placebo group, morning ItchRO[Obs] score (subjects with PFIC [1]; [3]): 1.20 point | reduction from baseline in pruritus morning ItchRO[Obs] score (subjects with PFIC [1]; [3]): 1.8 points | median proportion of reported days with an ItchRO(Obs) score of 0-1 (subjects with PFIC [1]; All-PFIC (MRX n = 33), Weeks 15-26): 95% | difference from the placebo group, evening ItchRO[Obs] score (subjects with PFIC [1]; [4]): 1.111 point | reduction from baseline in pruritus evening ItchRO[Obs] score (subjects with PFIC [1]; [4]): 1.7 points | difference from the placebo group, maximum daily ItchRO[Obs] score (subjects with PFIC [1]; [5]): 1.130 point | reduction from baseline in maximum pruritus daily ItchRO[Obs] score (subjects with PFIC [1]; [5]): 1.8 points | difference vs placebo in proportion of pruritus responders (assessments ≤1) (subjects with PFIC [1]; BSEP deficiency cohort, FIG. 16A): 0.344 | difference vs placebo in proportion of pruritus responders (assessments ≤1 or decrease ≥1) (subjects with PFIC [1]; [6]): 0.398 | proportion of pruritus responders: proportion of assessments ≤1 or decrease ≥1 (subjects with PFIC [1]; [6]): over 0.7 | percentage of pruritus response (ItchRO(Obs) responders) (subjects with PFIC [1]; BSEP deficiency cohort, FIG. 13A): 57.1% | difference from the placebo group, morning ItchRO[Obs] score (subjects with PFIC [1]; [7]): 1.089 point | reduction from baseline in pruritus morning ItchRO[Obs] score (subjects with PFIC [1]; [7]): 1.7 points | proportion of pruritus responders: proportion of assessments ≤1 (subjects with PFIC [1]; BSEP deficiency cohort, morning and evening, FIG. 16A): over 0.6 | difference from the placebo group, morning ItchRO[Obs] score (subjects with PFIC [1]; FIC1 (PFIC 1) cohort, FIG. 9A): 1.136 point | reduction from baseline in pruritus morning ItchRO[Obs] score (subjects with PFIC [1]; FIC1 (PFIC 1) cohort, FIG. 9A): 1.4 points | improvements in pruritus (weekly ItchRO(Obs) score) (subjects with PFIC [1]; FIC1, MDR3, TJP2, MYO5B cohorts, FIG. 33A-B): statistically significant and clinically meaningful improvements | difference from the placebo group, morning ItchRO[Obs] score (subjects with PFIC [1]; MDR3 (PFIC 3) cohort, FIG. 9B): 0.594 point | reduction from baseline in pruritus morning ItchRO[Obs] score (subjects with PFIC [1]; MDR3 (PFIC 3) cohort, FIG. 9B): 1.8 points | difference vs placebo in proportion of pruritus responders (assessments ≤1) (subjects with PFIC [1]; PFIC cohort, Baseline to Week 26, FIG. 16B, 27B): 0.345 | difference vs placebo in proportion of pruritus responders (assessments ≤1 or decrease ≥1) (subjects with PFIC [1]; PFIC cohort, FIG. 17B): 0.380 | proportion of pruritus responders: proportion of assessments ≤1 or decrease ≥1 (subjects with PFIC [1]; PFIC cohort, FIG. 17B): over 0.7 | response to treatment (subjects with PFIC [1]; PFIC patients post surgery (full population)): significant response | improvements in pruritus severity (subjects with PFIC [1]; full-study population, FIG. 35A): statistically significant and clinically meaningful improvements | improvements in pruritus (subjects with PFIC [1]; patients with no-variant found, FIG. 35C): demonstrated improvements | pruritus change in individual t-BSEP patients (morning ItchRO(Obs)) (subjects with PFIC [1]; t-BSEP (truncated PFIC2) patients, Baseline to Week 26, FIG. 41D): limited improvement in pruritus | median duration of diarrhea (subjects with PFIC [2]; MARCH): 5.5 days | patients who discontinued MRX due to transaminase elevation (subjects with PFIC [2]; MARCH): No patients | tolerability (subjects with PFIC [2]; MARCH): well-tolerated | Any TEAE, % (subjects with PFIC [2]; [8]): (100%) | Diarrhoea related to study drug, % (subjects with PFIC [2]; [8]): (27.7%) | GI disorders (most common TEAEs), % (subjects with PFIC [2]; [8]): 74.5% | GI events potentially related to study drug, % (subjects with PFIC [2]; [8]): (29.8%) | Grade 3/4 TEAE, % (subjects with PFIC [2]; [8]): (6.4%) | Serious TEAE (SAE), % (subjects with PFIC [2]; [8]): 10.6% | TEAE leading to discontinuation, % (subjects with PFIC [2]; [8]): (2.1%) | TEAE potentially related to study drug, % (subjects with PFIC [2]; [8]): (38.3%) | Serious TEAE (SAE), % (subjects with PFIC [2]; MARCH, all PFIC cohorts, Maralixibat (n = 47), listed as MRX): 10.6% | Diarrhoea, % (subjects with PFIC [2]; [9]): (57.4%) | Serious TEAE (SAE), % (subjects with PFIC [2]; [9]): (10.6%) | Constipation, % (subjects with PFIC [2]; MARCH, MRX (n = 47)): (8.5) % | Gastroenteritis, % (subjects with PFIC [2]; MARCH, MRX (n = 47)): (6.4) % | Haematochezia, % (subjects with PFIC [2]; MARCH, MRX (n = 47)): (6.4) % | Increased ALT, % (subjects with PFIC [2]; MARCH, MRX (n = 47)): (12.8) % | Vomiting, % (subjects with PFIC [2]; MARCH, MRX (n = 47)): (6.4) % | participants with resolution of the transaminase elevation without drug interruption (subjects with PFIC [2]; [10]): 6 | patients with ongoing stable transaminase elevation even after drug interruption or dose reduction (subjects with PFIC [2]; [10]): 2
